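Method: 48-hour compound exposure of cells in 96-well plates, five concentrations, linear interpolation of endpoints. GI50 is the concentration that inhibits growth by half.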 Active and inactive are the calls of the source. No stated cut-off is given here; in the data, active = GI50 up to about 1.1 µM and inactive = higher.
Legend:
Test in all cases: DTP human tumour cell line panel, 48 h
[1] = system: 786-0
[2] = system: A549
[3] = system: ACHN
[4] = system: CAKI-1
[5] = system: CCRF-CEM
[6] = system: COLO 205
[7] = system: DU-145
[8] = system: EKVX
[9] = system: HCT-116
[10] = system: HCT-15
[11] = system: HL-60
[12] = system: HOP-62
[13] = system: HOP-92
[14] = system: HT-29
[15] = system: Hs-578T
[16] = system: IGROV-1
[17] = system: K562
[18] = system: KM12
[19] = system: LOX IMVI
[20] = system: M14
[21] = system: MCF7
[22] = system: MDA-MB-231
[23] = system: MDA-MB-435
[24] = system: MDA-N
[25] = system: MOLT-4
[26] = system: Malme-3M
[27] = system: NCI-H226
[28] = system: NCI-H23
[29] = system: NCI-H460
[30] = system: NCI-H522
[31] = system: NCI/ADR-RES
[32] = system: OVCAR-3
[33] = system: OVCAR-4
[34] = system: OVCAR-5
[35] = system: OVCAR-8
[36] = system: PC-3
[37] = system: RPMI-8226
[38] = system: RXF 393
[39] = system: SF-268
[40] = system: SF-295
[41] = system: SF-539
[42] = system: SK-MEL-28
[43] = system: SK-MEL-2
[44] = system: SK-MEL-5
[45] = system: SN12C
[46] = system: SNB-19
[47] = system: SNB-75
[48] = system: SR
[49] = system: SW-620
[50] = system: T47D
[51] = system: TK-10
[52] = system: U-251
[53] = system: UACC-257
[54] = system: UACC-62
[55] = system: UO-31
[56] = system: A498
[57] = system: BT-549
[58] = system: HCC 2998
[59] = system: SK-OV-3

## COc1ccc2nc(/C(N)=C\C#N)ccc2c1
[1]
  GI50: 34.7 µM (inactive)
[2]
  GI50: 47.2 µM (inactive)
[3]
  GI50: 75.2 µM (inactive)
[4]
  GI50: > 100 µM (inactive)
[5]
  GI50: 40.3 µM (inactive)
[6]
  GI50: 56 µM (inactive)
[7]
  GI50: 92.5 µM (inactive)
[8]
  GI50: 0.15 µM (active)
[9]
  GI50: 20.3 µM (inactive)
[10]
  GI50: > 100 µM
[11]
  GI50: 18 µM (inactive)
[12]
  GI50: > 100 µM (inactive)
[13]
  GI50: 91.8 µM (inactive)
[14]
  GI50: 47.6 µM (inactive)
[15]
  GI50: 1.01 µM (active)
[16]
  GI50: 29.9 µM (inactive)
[17]
  GI50: 31.6 µM (inactive)
[18]
  GI50: 52.1 µM (inactive)
[19]
  GI50: 36 µM (inactive)
[20]
  GI50: 42.1 µM (inactive)
[21]
  GI50: > 100 µM (inactive)
[22]
  GI50: > 100 µM (inactive)
[23]
  GI50: 32.6 µM (inactive)
[24]
  GI50: 45.3 µM (inactive)
[25]
  GI50: 23.9 µM (inactive)
[26]
  GI50: > 100 µM (inactive)
[27]
  GI50: > 100 µM (inactive)
[28]
  GI50: 90.2 µM (inactive)
[29]
  GI50: > 100 µM (inactive)
[30]
  GI50: 37 µM (inactive)
[31]
  GI50: 30.8 µM (inactive)
[32]
  GI50: 31.6 µM (inactive)
[33]
  GI50: 86.7 µM (inactive)
[34]
  GI50: > 100 µM (inactive)
[35]
  GI50: 36.8 µM (inactive)
[36]
  GI50: 43.7 µM (inactive)
[37]
  GI50: 37.5 µM (inactive)
[38]
  GI50: 1.89 µM (inactive)
[39]
  GI50: 33.7 µM (inactive)
[40]
  GI50: 93.8 µM (inactive)
[41]
  GI50: 46 µM (inactive)
[42]
  GI50: > 100 µM (inactive)
[43]
  GI50: 49.5 µM (inactive)
[44]
  GI50: 11.9 µM (inactive)
[45]
  GI50: 57.5 µM (inactive)
[46]
  GI50: > 100 µM (inactive)
[47]
  GI50: > 100 µM (inactive)
[48]
  GI50: 22.3 µM (inactive)
[49]
  GI50: > 100 µM (inactive)
[50]
  GI50: 30.9 µM (inactive)
[51]
  GI50: 59.2 µM (inactive)
[52]
  GI50: 60.5 µM (inactive)
[53]
  GI50: > 100 µM (inactive)
[54]
  GI50: 6.58 µM (inactive)
[55]
  GI50: 32.8 µM (inactive)

## O=C(CCC1OCCO1)Nc1cc(NCc2ccccc2)ccc1OCc1ccccc1
[1]
  GI50: > 100 µM (inactive)
[56]
  GI50: 30.5 µM (inactive)
[2]
  GI50: 30.6 µM (inactive)
[3]
  GI50: 33.5 µM (inactive)
[57]
  GI50: 38.5 µM (inactive)
[4]
  GI50: 20.7 µM (inactive)
[5]
  GI50: 17 µM (inactive)
[6]
  GI50: 22.3 µM (inactive)
[7]
  GI50: 50.5 µM (inactive)
[8]
  GI50: 21.2 µM (inactive)
[58]
  GI50: 33 µM (inactive)
[9]
  GI50: 48.9 µM (inactive)
[10]
  GI50: 35.1 µM
[11]
  GI50: 38.5 µM (inactive)
[12]
  GI50: > 100 µM (inactive)
[13]
  GI50: 17.8 µM (inactive)
[14]
  GI50: 27.7 µM (inactive)
[15]
  GI50: 34.3 µM (inactive)
[16]
  GI50: 41.6 µM (inactive)
[17]
  GI50: 28.9 µM (inactive)
[18]
  GI50: 30.1 µM (inactive)
[19]
  GI50: 33.7 µM (inactive)
[20]
  GI50: 59.6 µM (inactive)
[21]
  GI50: 33.6 µM (inactive)
[22]
  GI50: 42 µM (inactive)
[23]
  GI50: 23.6 µM (inactive)
[25]
  GI50: 20.5 µM (inactive)
[26]
  GI50: 20.6 µM (inactive)
[27]
  GI50: 38.4 µM (inactive)
[28]
  GI50: 31.7 µM (inactive)
[29]
  GI50: 39.1 µM (inactive)
[30]
  GI50: 23.7 µM (inactive)
[31]
  GI50: 43.1 µM (inactive)
[33]
  GI50: 31.8 µM (inactive)
[34]
  GI50: 46.9 µM (inactive)
[35]
  GI50: 18.9 µM (inactive)
[37]
  GI50: 20.1 µM (inactive)
[38]
  GI50: 28.8 µM (inactive)
[39]
  GI50: 63.8 µM (inactive)
[40]
  GI50: 30.2 µM (inactive)
[41]
  GI50: 30.4 µM (inactive)
[42]
  GI50: 64.7 µM (inactive)
[43]
  GI50: 21 µM (inactive)
[44]
  GI50: 18.4 µM (inactive)
[59]
  GI50: 68.5 µM (inactive)
[45]
  GI50: 46.8 µM (inactive)
[46]
  GI50: 40.3 µM (inactive)
[47]
  GI50: 32.5 µM (inactive)
[48]
  GI50: 27.9 µM (inactive)
[49]
  GI50: 42.1 µM (inactive)
[50]
  GI50: 69.5 µM (inactive)
[51]
  GI50: 26.6 µM (inactive)
[52]
  GI50: 37.1 µM (inactive)
[53]
  GI50: 20.2 µM (inactive)
[54]
  GI50: 28.1 µM (inactive)
[55]
  GI50: 33.9 µM (inactive)

## Cc1cc(O)c(C(O)c2ccccn2)cc1O (centres undefined)
[1]
  GI50: 19.1 µM (inactive)
[2]
  GI50: 81.1 µM (inactive)
[3]
  GI50: 6.01 µM (inactive)
[4]
  GI50: 11.7 µM (inactive)
[5]
  GI50: 3.21 µM (inactive)
[6]
  GI50: 10 µM (inactive)
[7]
  GI50: 37.9 µM (inactive)
[8]
  GI50: 18.2 µM (inactive)
[58]
  GI50: 21.3 µM (inactive)
[9]
  GI50: 16.7 µM (inactive)
[10]
  GI50: 18.2 µM
[11]
  GI50: 11.1 µM (inactive)
[12]
  GI50: 89.1 µM (inactive)
[14]
  GI50: 21.4 µM (inactive)
[15]
  GI50: 45.8 µM (inactive)
[16]
  GI50: 35.8 µM (inactive)
[17]
  GI50: 3.77 µM (inactive)
[18]
  GI50: 24.5 µM (inactive)
[19]
  GI50: 16.5 µM (inactive)
[20]
  GI50: 20.2 µM (inactive)
[21]
  GI50: 18.1 µM (inactive)
[22]
  GI50: 17.5 µM (inactive)
[23]
  GI50: 18.7 µM (inactive)
[24]
  GI50: 18.7 µM (inactive)
[25]
  GI50: 13.6 µM (inactive)
[26]
  GI50: 20.7 µM (inactive)
[27]
  GI50: > 10 µM (inactive)
[28]
  GI50: 18 µM (inactive)
[29]
  GI50: 49.2 µM (inactive)
[30]
  GI50: 3.78 µM (inactive)
[31]
  GI50: 27.5 µM (inactive)
[32]
  GI50: 15 µM (inactive)
[34]
  GI50: 17.2 µM (inactive)
[35]
  GI50: 18.8 µM (inactive)
[36]
  GI50: 14.1 µM (inactive)
[37]
  GI50: 20.4 µM (inactive)
[38]
  GI50: 16.3 µM (inactive)
[39]
  GI50: 75.7 µM (inactive)
[40]
  GI50: > 100 µM (inactive)
[41]
  GI50: 38.8 µM (inactive)
[42]
  GI50: 18.7 µM (inactive)
[44]
  GI50: 23.2 µM (inactive)
[45]
  GI50: 18.7 µM (inactive)
[46]
  GI50: 55.3 µM (inactive)
[47]
  GI50: 14.7 µM (inactive)
[48]
  GI50: 3.01 µM (inactive)
[49]
  GI50: 21.1 µM (inactive)
[50]
  GI50: > 10 µM (inactive)
[51]
  GI50: 16.6 µM (inactive)
[52]
  GI50: 36.7 µM (inactive)
[53]
  GI50: > 10 µM (inactive)
[54]
  GI50: 14.5 µM (inactive)
[55]
  GI50: 19.1 µM (inactive)
